Key:
HSV-1 virus (KOS strain) = assay: HSV-1 viral yields in supernatants of OC3 cells, plaque assay; assay type: cell-based, Herpes simplex virus type 1
Procedure: FIG. 4 provides Experimental conditions for evaluation of the effects of Antrodia camphorata fruit body extracts on oral epithelial cells during HSV-1 infection. Three experimental conditions, including no-treatment, pre-treatment and post-treatment were performed. Oral epithelial cells (OC3) were pre-treated with media only or media containing each Antrodia camphorata extracts for 2 hours, followed by HSV-1 inoculation. Cells were infected with HSV-1 viruses at multiplicity of infection (MOI) of 5 or mock infected for 1 hour at 37° C. for viral entry to occur. Antrodia camphorata extracts were not added during viral inoculation for 1 hour to avoid of its direct effects on virions. Mock- or HSV-1-infected cells were further incubated in the absence or presence of the drug for 19 hours.
The oral epithelial cell line (OC3) was used to determine the possible effects of Antrodia camphorata extracts on oral epithelial cells during HSV-1 infection. Cell monolayers were treated as illustrated in FIG. 4 (please also see details in the Materials and Methods section). Three experimental conditions, including no-treatment, pre-treatment and post-treatment were performed. Whether these Antrodia camphorata extracts have effects before or after viral infection were examined. The effects of Antrodia camphorata extracts on viral propagation (viral yields) in infected oral epithelial cells were examined. At 19-20 h post infection, viral yields in the supernatants were determined using the plaque assay. Viability of treated cells was also determined using the MTT assay for the mitochondrial dehydrogenase activity. Moreover, purified HSV-1 virions were directly treated with Antrodia camphorata extracts to examine whether Antrodia camphorata extracts exert anti-HSV-1 activity directly on virus particles before viral entry.
HSV-1 virus (KOS strain) from the extra-cellular fluid of infected Vero cells was purified using sucrose-gradient. Purified viruses were stored frozen in small aliquots. Purified viruses were titered using the plaque assay.
Oral epithelial cells (OC3 cells) were infected with HSV-1 at multiplicity of infection (MOI) of 5 or mock infected for 1 h at 37° C. for viral entry to occur. Unbound viruses were removed. Infected cells were then overlaid with appropriate media and incubated at 37° C. The Antrodia camphorata fruit body extracts used were A2 (Antrodia camphorata extracts), A3 (dehydrosulphurenic acid), A4 (antcin K), A5 (versisponic acid), and A6 (dehydroeburicoic acid). For the effects of Antrodia camphorata fruit body extracts, oral cells were treated in three different experimental conditions (FIG. 1): (1) no treatment, (2) pre-treatment with each Antrodia camphorata fruit body extracts before infection and (3) post-treatment with each Antrodia camphorata fruit body extracts after infection. Purified HSV-1 virions were also incubated directly with media only or media containing Antrodia camphorata fruit body extracts. The viral infectivity of treated virions was then examined using the plaque assay.
Viral titers in the supernatants after infection were determined using the plaque assay. Cells were grown to confluence and infected with tenfold serial dilution of the samples. Cells were then overlaid with medium containing 3% carboxymethylcellulose to prevent the formation of secondary plaques. Cells were incubated until well-defined clear plaques were formed. Cells were fixed with 3.7% formaldehyde and stained with crystal violet. Plaques were observed and counted under an inverted microscope. The viral yield of the media-pretreated HSV-1 infected control was considered to be 100%.

HBV = HBV replication, assembly, secretion in HepG2.2.15 cells (HBsAg/HBeAg ELISA, HBV DNA real-time PCR); assay type: cell-based, Hepatitis B virus
Procedure: (§1) HepG2.2.15 cells were cultured with different concentrations of Antrodia camphorata fruit body extracts for 48 h, then the culture medium was collected to measure HBV HBsAg by ELISA. HepG2, containing no HBV, was used as a negative control (NC). The results are expressed as a percentage of the non-drug-treated positive control (NT) and are shown as mean±SD for three independent experiments. *, P<0.05; **, P<0.01; ***, P<0.001.
as §1, with “HBeAg” for “HBsAg”
as §1, with “DNA” for “HBsAg”, “real-time PCR. Plasmid p1.3HBcl, which contains a 1.3-fold HBV genome (ayw subtype (Galibert et al., 1979)), was used as standard in parallel PCR reactions, while” for “ELISA.”
Continuous HBV proliferation can be achieved in HepG2.2.15 cells (RRID:CVCL_L855) stably transfected with the HBV genome of the adw2 subtype. HepG2.2.15 cells are used because of the unlimited supply and constant quality and were maintained in Dulbecco's modified Eagle medium (DMEM; Invitrogen) supplemented with 10% heat-inactivated fetal bovine serum (FBS; Thermo) plus 100 units of penicillin and 100 µg of streptomycin per ml (both from Invitrogen).
The culture medium from drug-treated HepG2.2.15 cells is clarified by centrifugation at 1,000×g at 4° C. for 10 min, and then the supernatant is layered on top of a 20% sucrose cushion (20% sucrose, 20 mM HEPES, pH 7.4, 0.1% bovine serum albumin [BSA]) and centrifuged at 197,000×g for 3 h at 4° C. to pellet the HBV particles, which are then concentrated 100 fold to detect HBV DNA.
Total DNA is extracted with a Genomic DNA isolation kit (Nexttec Biotechnologie, Germany). Total RNA is isolated from cultured cells using TRIzol® reagent (Invitrogen). Reverse transcription is performed with the RNA templates, AMV reverse transcriptase (Roche), and oligo-dT primer. The products are subjected to real-time PCR with primer sets of specific genes and SYBR Green PCR Master Mix (Bio-Rad). The primer sets used for HBV core, HBsAg, cccDNA and GAPDH are described. The results are analyzed with the iCycler iQ real-time PCR detection system (Bio-Rad). Plasmid p1.3HBcl is prepared at 10-fold dilutions (2*10^4-2*10^9 […] to generate a standard curve in parallel PCR reactions.
To test whether Antrodia camphorata fruit body extracts had any effect on HBV genome replication, assembly, or secretion, HepG2.2.15 cells, which stably transfected with HBV genome, were used to incubate with four Antrodia camphorata fruit body extracts for 48 hours, then HBsAg, HBeAg and HBV DNA collected from medium were measured by ELISA and real-time PCR.

[1] = 48 h, at 20 μg/ml and 50 μg/ml, percentage of non-drug-treated control

## C=C(CC[C@@H](C)[C@H]1CC[C@H]2C3=C(C(=O)C[C@]12C)[C@@]1(C)CCC(O)[C@](C)(O)C1CC3O)C(C)C(=O)O (stereo partly shown) [A4, antcin K]
HSV-1 virus (KOS strain); OC3 cells post-treated after HSV-1 infection (MOI 5), 19 hours
  viral yields in the supernatants, post-treatment: significantly reduced
HSV-1 virus (KOS strain); OC3 cells pre-treated 2 hours before HSV-1 infection (MOI 5)
  viral yields in the supernatants, pre-treatment: little effects
HSV-1 virus (KOS strain); infected OC3 cells post-treated with 100 μg/ml, media control = 100%
  viral yield reduced to: 19%
HBV
  HBV replication, the assembly or release of viral particles: significantly inhibits
HBV; 48 h, 50 μg/ml, percentage of non-drug-treated control
  HBV DNA repressed to: 55%
HBV; [1]
  level of HBeAg in the culture supernatant, decreased to: 50-60%
  level of HBsAg in the culture supernatant, decreased to: 50-60%
HBV; FIG. 2A
  HBsAg protein levels, dose dependence: marked dose-dependent reduction
HBV; FIG. 2B
  core protein levels, dose dependence: marked dose-dependent reduction
HBV; FIG. 2C
  HBV DNA in particles, dose dependence: marked dose-dependent reduction
